Results: US10139394B2, “Method for controlling cancer metastasis or cancer cell migration by modulating the cellular level of lysyl tRNA synthetase” (Medicinal Bioconvergence Research Center, priority 2008, dated 2018)

Test system: A549 cells
Test: Cell migration assay in Transwell chamber
Assay type: cell-based
Conditions: laminin 10 μg/ml in lower well, 6 hr, in average, FIG. 24 and 18
Method: In FIG. 18, A549 cells were transfected with the indicated plasmids, incubated in the absence and presence of laminin and their effect on cell migration was determined by measuring the migrated cells in transwell chamber as described. The numbers of the cells passed through the membrane were counted and shown in each panel. The experiments were performed three times. In FIG. 19, the cells treated as above were used to determine MMP-2 activity and level by zymography and Western blotting, respectively. In FIG. 20, Breast carcinoma 4T-1 cells were transfected with the indicated siRNA and subcutaneously injected to the back of Balb/C mice. After 21 days, mouse lungs were isolated and tumor nodules over 1 mm in diameter were counted. In FIG. 21, two different 4T-1 cells stably expressing exogenously introduced KRS (KRS-1 and -2) were also inoculated as above and the tumor nodules were counted 30 days after injection. […]
FIGS. 24 to 27 show effect of intracellular and extracellular KRS on cell migration, protein synthesis and cell cycle. In FIG. 24, Migration of A549 cells incubated in the absence of laminin was determined was determined by measuring the migrated cells in Transwell chamber. […] After 6 hr of incubation, the migrant were counted. […] In FIG. 27, A549 cells transfected as indicated were fixed and stained with propidium iodide, and their cell cycle was determined by flow cytometry. […]

Q: How did the “Migration of the control cells, enhancement” value turn out when “laminin: laminin (Engelbreth-Holm-Swarm murine sarcoma) from Sigma” was run?
A: The value was “about 6 fold”.
